Source: patent US20050090529A1, “3,5 Disubstituted indazole compounds with nitrogen-bearing 5-membered heterocycles, pharmaceutical compositions, and methods for mediating or inhibiting cell proliferation” (PFIZER INC, priority 2003, published 2005)

Tested on: Cyclin-dependent kinase
Experiment: Cyclin-dependent kinase inhibition, % inhibition at 10 nM (library Examples 99-270)
Assay type: biochemical
Conditions: 10 nM compound
Procedure: Cyclin-dependent kinase activity was measured by quantifying the enzyme-catalyzed, time-dependent incorporation of radioactive phosphate from [^32P]ATP or [^33P]ATP into a protein substrate. Unless noted otherwise, assays were performed in 96-well plates in a total volume of 50 μL, in the presence of 10 mM HEPES (N-[2-hydroxyethyl]piperazine-N′-[2-ethanesulfonic acid]) (pH 7.4), 10 mM MgCl2, 25 μM adenosine triphosphate (ATP), 1 mg/mL ovalbumin, 5 μg/mL leupeptin, 1 mM dithiothreitol, 10 mM beta-glycerophosphate, 0.1 mM sodium vanadate, 1 mM sodium fluoride, 2.5 mM ethylene glycol-bis(β-aminoethyl ethKer)-N,N,N′N′-tetraacetic acid (EGTA), 2% (v/v) dimethylsulfoxide, and 0.03-0.4 μCi [^32/33P]ATP per reaction. Reactions were initiated with enzyme, incubated at 30° C., and terminated after 20 minutes by the addition of ethylenediaminetetraacetic acid (EDTA) to 250 mM. The phosphorylated substrate was then captured on a nitrocellulose or phosphocellulose membrane using a 96-well filtration manifold, and unincorporated radioactivity was removed by repeated washing with 0.85% phosphoric acid. Radioactivity was quantified by exposing the dried membranes to a phosphorimager.
Results of assays performed on compounds, which include the specific examples described above are provided in Examples 99-274 above, and in Table 1 below. Unless indicated otherwise in a particular entry, the units and assays used are as indicated in the applicable column of the table.

SMILES	% Inhib @ 10 nM [%]
CCNCc1cncc(-c2ccc3[nH]nc(-c4ncc(C(=O)NC5CCC5)[nH]4)c3c2)c1C [Example 135, N-cyclobutyl-2-(5-{5-[(ethylamino)methyl]-4-methylpyridin-3-yl}-1H-indazol-3-yl)-1H-imidazole-5-carboxamide]	67
CCNCc1cncc(-c2ccc3[nH]nc(-c4ncc(C(=O)NCC(F)(F)F)[nH]4)c3c2)c1C [Example 136, 2-(5-{5-[(ethylamino)methyl]-4-methylpyridin-3-yl}-1H-indazol-3-yl)-N-(2,2,2-trifluoroethyl)-1H-imidazole-5-carboxamide]	72
CCNCc1cncc(-c2ccc3[nH]nc(-c4ncc(C(=O)N(C)C5CCN(C)C5)[nH]4)c3c2)c1C (stereo not drawn) [Example 137, 2-(5-{5-[(ethylamino)methyl]-4-methylpyridin-3-yl}-1H-indazol-3-yl)-N-methyl-N-(1-methylpyrrolidin-3-yl)-1H-imidazole-5-carboxamide]	37
CCNCc1cncc(-c2ccc3[nH]nc(-c4ncc(C(=O)N5CCCC5)[nH]4)c3c2)c1C [Example 138, ethyl[(4-methyl-5-{3-[5-(pyrrolidin-1-ylcarbonyl)-1H-imidazol-2-yl]-1H-indazol-5-yl}pyridin-3-yl)methyl]amine]	79
CCNCc1cncc(-c2ccc3[nH]nc(-c4ncc(C(=O)NC5(CO)CCCC5)[nH]4)c3c2)c1C [Example 139, 2-(5-{5-[(ethylamino)methyl]-4-methylpyridin-3-yl}-1H-indazol-3-yl)-N-[1-(hydroxymethyl)cyclopentyl]-1H-imidazole-5-carboxamide]	64
CCNCc1cncc(-c2ccc3[nH]nc(-c4ncc(C(=O)N[C@H](CO)Cc5c[nH]c6ccccc56)[nH]4)c3c2)c1C [Example 140, 2-(5-{5-[(ethylamino)methyl]-4-methylpyridin-3-yl}-1H-indazol-3-yl)-N-[(1S)-2-hydroxy-1-(1H-indol-3-ylmethyl)ethyl]-1 H-imidazole-5-carboxamide]	31
CCNCc1cncc(-c2ccc3[nH]nc(-c4ncc(C(=O)N5CCC(O)(Cc6ccccc6)CC5)[nH]4)c3c2)c1C [Example 141, 4-benzyl-1-{[2-(5-{5-[(ethylamino)methyl]-4-methylpyridin-3-yl}-1H-indazol-3-yl)-1H-imidazol-5-yl]carbonyl}pipendin-4-ol]	71
CCNCc1cncc(-c2ccc3[nH]nc(-c4ncc(C(=O)N5CCC(C(=O)c6ccc(F)cc6)CC5)[nH]4)c3c2)c1C [Example 142, (1-{[2-(5-{5-[(ethylamino)methyl]-4-methylpyridin-3-yl}-1H-indazol-3-yl)-1H-imidazol-5-yl]carbonyl}piperidin-4-yl)(4-fluorophenyl)methanone]	65
CCNCc1cncc(-c2ccc3[nH]nc(-c4ncc(C(=O)NC5CCCCC5)[nH]4)c3c2)c1C [Example 143, N-cyclohexyl-2-(5-{5-[(ethylamino)methyl]-4-methylpyridin-3-yl}-1H-indazol-3-yl)-1H-imidazole-5-carboxamide]	78
CCNCc1cncc(-c2ccc3[nH]nc(-c4ncc(C(=O)N5CCN(c6ccncc6)CC5)[nH]4)c3c2)c1C [Example 144, ethyl{[4-methyl-5-(3-{5-[(4-pyridin-4-ylpiperazin-1-yl)carbonyl]-1H-imidazol-2-yl}-1H-indazol-5-yl)pyridin-3-yl]methyl}amine]	30
CCNCc1cncc(-c2ccc3[nH]nc(-c4ncc(C(=O)N5CCN(c6cnccn6)CC5)[nH]4)c3c2)c1C [Example 145]	58
C=CCN(CC=C)CCN1CCN(C(=O)c2cnc(-c3n[nH]c4ccc(-c5cncc(CNCC)c5C)cc34)[nH]2)CC1 [Example 146, diallyl[2-(4-{[2-(5-{5-[(ethylamino)methyl]-4.-methylpyridin-3-yl}-1H-indazol-3-yl)-1H-imidazol-5-yl]carbonyl}piperazin-1-yl)ethyl]amine]	22
CCNCc1cncc(-c2ccc3[nH]nc(-c4ncc(C(=O)N5CCN(c6ccccc6C#N)CC5)[nH]4)c3c2)c1C [Example 147]	69
CCNCc1cncc(-c2ccc3[nH]nc(-c4ncc(C(=O)NCc5ccc(F)c(C(F)(F)F)c5)[nH]4)c3c2)c1C [Example 148]	60
CCNCc1cncc(-c2ccc3[nH]nc(-c4ncc(C(=O)N5CCC6CCCCC6C5)[nH]4)c3c2)c1C (stereo not drawn) [Example 149, ethyl[(4-methyl-5-{3-[5-(octahydroisoquinolin-2(1H)-ylcarbonyl)-1H-imidazol-2-yl]-1H-indazol-5-yl}pyridin-3-yl)methyl]amine]	69
CCNCc1cncc(-c2ccc3[nH]nc(-c4ncc(C(=O)NC)[nH]4)c3c2)c1C [Example 151, 2-(5-{5-[(ethylamino)methyl]-4-methylpyridin-3-yl}-1H-indazol-3-yl)-N-methyl-1H-imidazole-5-carboxamide]	67
CCNCc1cncc(-c2ccc3[nH]nc(-c4ncc(C(=O)N5CCOCC5)[nH]4)c3c2)c1C [Example 152, ethyl[(4-methyl-5-{3-[5-(morpholin-4-ylcarbonyl)-1H-imidazol-2-yl]-1H-indazol-5-yl}pyridin-3-yl)methyl]amine]	67
CCNCc1cncc(-c2ccc3[nH]nc(-c4ncc(C(=O)NCCO)[nH]4)c3c2)c1C [Example 153, 2-(5-{5-[(ethylamino)methyl]-4-methylpyridin-3-yl}-1H-indazol-3-yl)-N-(2-hydroxyethyl)-1H-imidazole-5-carboxamide]	70
CCNCc1cncc(-c2ccc3[nH]nc(-c4ncc(C(=O)NCCC#N)[nH]4)c3c2)c1C [Example 154, N-(2-cyanoethyl)-2-(5-{5-[(ethylamino)methyl]-4-methylpyridin-3-yl}-1H-indazxol-3-yl)-1H-imidazole-5-carboxamide]	71
CCNCc1cncc(-c2ccc3[nH]nc(-c4ncc(C(=O)NCCSCc5ccc(CN(C)C)o5)[nH]4)c3c2)c1C [Example 155, N-{2-[({5-[(dimethylamino)methyl]-2-furyl}methyl)thio]ethyl}-2-(5-{5-[(ethylamino)methyl]-4-methylpyridin-3-yl}-1H-indazol-3-yl)-1H-imidazoie-5-carboxamide]	37
CCNCc1cncc(-c2ccc3[nH]nc(-c4ncc(C(=O)N(C)CCN(C)C)[nH]4)c3c2)c1C [Example 156]	25
CCNCc1cncc(-c2ccc3[nH]nc(-c4ncc(C(=O)NC/C=C(\C)CCC=C(C)C)[nH]4)c3c2)c1C [Example 157]	28
CCNCc1cncc(-c2ccc3[nH]nc(-c4ncc(C(=O)NC5Cc6ccccc6C5)[nH]4)c3c2)c1C [Example 158, N-(2,3-dihydro-1H-inden-2-yl)-2-(5-{5-[(ethylamino)methyl]-4-methylpyridin-3-yl}-1H-indazol-3-yl)-1H-imidazole-5-carboxamide]	56
CCNCc1cncc(-c2ccc3[nH]nc(-c4ncc(C(=O)NCc5ccc(CN(C)C)cc5)[nH]4)c3c2)c1C [Example 159, N-{4[(dimethylamino)methyl]benzyl}-2-(5-{5-[(ethylamino)methyl]-4-methylpyridin-3-yl}-1H-indazol-3-yl)-1H-imidazole-5-carboxamide]	28
CCNCc1cncc(-c2ccc3[nH]nc(-c4ncc(C(=O)NC(Cc5cc(C)no5)C5CC5)[nH]4)c3c2)c1C (stereo not drawn) [Example 160, N-[1-cyclopropyl-2-(3-methylisoxazol-5-yl)ethyl]-2-(5-{5-[(ethylamino)methyl]-4-methylpyridin-3-yl}-1H-indazol-3-yl)-1H-imidazole-5-carboxamide]	48
CCNCc1cncc(-c2ccc3[nH]nc(-c4ncc(C(=O)NCCc5c[nH]cn5)[nH]4)c3c2)c1C [Example 161, 2-(5-{5-[(ethylamino)methyl]-4-methylpyridin-3yl-1H-indazol-3yl)-N-2-(1H-imidazol-4-yl)ethyl]-1H-imidazole-5-carboxamide]	48
CCNCc1cncc(-c2ccc3[nH]nc(-c4ncc(C(=O)N[C@H]5CCc6ccccc65)[nH]4)c3c2)c1C [Example 162]	81
CCNCc1cncc(-c2ccc3[nH]nc(-c4ncc(C(=O)N5CCSCC5)[nH]4)c3c2)c1C [Example 163, ethyl[(4-methyl-5-{3-[5-(thiomorpholin-4-ylcarbonyl)-1H-imidazol-2-yl]-1H-indazol-5-yl}pyridin-3-yl)methyl]amine]	60
CCCCN(CCC#N)C(=O)c1cnc(-c2n[nH]c3ccc(-c4cncc(CNCC)c4C)cc23)[nH]1 [Example 164, N-butyl-N-(2-cyanoethyl)-2-(5-{5-[(ethylamino)methyl]4-methylpyridin-3-yl}-1H-indazol-3-yl)-1H-imidaole-5-carboxamide]	69
CCNCc1cncc(-c2ccc3[nH]nc(-c4ncc(C(=O)N(C)CCc5ccc(OC)c(OC)c5)[nH]4)c3c2)c1C [Example 165, N-[2-(3,4-dimethoxyphenyl)ethyl]-2-(5-{5-[(ethylamino)methyl]-4-methylpyridin-3-yl}-1H-indazol-3-yl)-N-methyl-1H-imidazole-5-carboxamide]	37
